Assay results as given in patent US11660291B2, “IL-8 inhibitors for use in the treatment of some sarcomas” (Dompe' Farmaceutici S.P.A., priority 2017, dated 2023).
“Also recorded” adds a separate entry of the source.

How the values were obtained:
OS-17 cells = experiment: Transwell migration and invasion assays, serum as chemoattractant, small molecule inhibitors; format: cell-based, human; settings: 24 hours
Experimental: OS cells were cultured on a transwell chamber membrane, then subjected transferred to a chamber containing RPMI with 2.5% FBS (pos ctl) or RPMI alone (neg ctl). Other wells containing 2.5% FBS in the bottom chamber were treated with 1 uM sc144, 10 nM D[…], or both. After 24 hours, top chambers were scraped clean, membranes stained and cells counted. Transwell migration and invasion assays. 1×10^4 OS cells were plated into transwell inserts (either Falcon #353097 for migration or Corning #354483 for Matrigel invasion assays) containing appropriate chemotactic factors. After 24 hours of incubation, transwells were drained and upper chambers/membrane upper surfaces scraped using a polyester swab. Membranes were stained using a Dif-Quik Stain Set (Siemens #B4132-1A) and dried, then imaged on an inverted microscope. Cells were quantified using Adobe Photoshop counting tools. For experiments involving IL-6 and IL-8 chemotaxis, media contained 1% FBS in both chambers, with recombinant protein added to the bottom chamber to make 50 ng/ml IL6 (BioLegend #570804) or 100 ng/ml IL-8 (BioLegend #574204). For experiments using serum as a chemoattractant, top chambers contained RPMI only, while bottom chambers contained 1% or 2.5% serum. Where noted, 20 ug/ml of neutralizing antibodies to either IL6 (Abcam #AB6672), IL-8 (Abcam #AB18672), or both were added to both upper and lower chambers. […]

pFAK = experiment: PD analysis in lung tissue, IHC for pFAK; format: in vivo, mouse
Experimental: Mice treated with injections of either DF2156A or sc144 daily were euthanized 24 hours subsequent to their 14th dose of drug. Lungs harvested from those mice were processed using standard FFPE, then sectioned and stained with IHC for either pFAK (downstream of IL-8) or pSTAT3 (downstream of IL-6).
To evaluate the functional importance of IL-6 and IL-8 pathways to OS lung metastasis, the present inventors used the xenograft models. Balb-SCID mice inoculated via tail vein with 1×10^6 luciferase-labeled OS-17 cells received treatment with sc144 (the gp130 inhibitor), DF2156A (the CXCR1/2 inhibitor), or both. Mice continued to receive treatment for 42 days, after which treatment stopped. Intravital imaging for in vivo assessment of tumor burden was performed at 14 and 24 days using standard bioluminescent techniques. […] Two mice from each single-agent treatment group were euthanized 24 hours after the 14th dose of drug to perform pharmacodynamics (PD) assessment of target inhibition.

For `C[C@@H](C(=O)NS(C)(=O)=O)c1ccc(OS(=O)(=O)C(F)(F)F)cc1` [DF2156A], the “directional migration and invasion” value (OS-17 cells; serum (2.5% FBS) as chemoattractant, 1 uM sc144, 10 nM DF2156A (FIG. 2)) was “suffices to prevent directional migration and invasion”, the “amount of migration of OS cells” value (OS-17 cells; serum as chemoattractant, transwell) was “significantly decreased the amount of migration” and the “pFAK IHC staining in lung (target inhibition, downstream of IL-8)” value (pFAK; 24 hours after the 14th daily dose (dosing trough)) was “sustained target inhibition; also recorded: reduced the amount of activation seen”. The “number of infiltrating cells in lung” value (pFAK; 24 hours after the 14th daily dose (trough concentrations)) was “reduced”.
